Results published in ChEMBL document CHEMBL1759870, “Identification, structural properties and chelating capacity of miltipolone as a broad-spectrum inhibitor to cancer cells” (Eur J Med Chem, 2011).

Key:
HUVEC = assay: Antiproliferative activity against human HUVEC cells after 96 hrs by MTT assay; format: cell-based
HepG2 = assay: Antiproliferative activity against human HepG2 cells after 96 hrs by MTT assay; format: functional, cell-based; details: HepG2, 96 h
Jurkat = assay: Antiproliferative activity against human Jurkat cells after 96 hrs by MTT assay; format: functional, cell-based
NCI-N87 = assay: Antiproliferative activity against human NCI-N87 cells after 96 hrs by MTT assay; format: functional, cell-based; details: NCI-N87, 96 h
Bel-7402 = assay: Antiproliferative activity against human Bel7402 cells after 96 hrs by MTT assay; format: functional, cell-based; details: Bel-7402, 96 h
HeLa = assay: Antiproliferative activity against human HeLa cells after 96 hrs by MTT assay; format: functional, cell-based
HT-1080 = assay: Antiproliferative activity against human HT1080 cells after 96 hrs by MTT assay; format: functional, cell-based; details: HT-1080, 96 h
A-375 = assay: Antiproliferative activity against human A375 cells after 96 hrs by MTT assay; format: functional, cell-based; details: A-375, 96 h
PANC-1 = assay: Antiproliferative activity against human PANC1 cells after 96 hrs by MTT assay; format: functional, cell-based; details: PANC-1, 96 h

Row | IC50 (HepG2) | IC50 (Jurkat) | IC50 (Bel-7402) | IC50 (HeLa) | IC50 (HT-1080) | IC50 (A-375) | IC50 (PANC-1) | Compound | IC50 (HUVEC) | IC50 (NCI-N87)
1 | 19 nM | 37.5 nM | – | – | – | – | – | COc1cccc2c1C(=O)c1c(O)c3c(c(O)c1C2=O)C[C@@](O)(C(=O)CO)C[C@@H]3O[C@H]1C[C@H](N)[C@H](O)[C@H](C)O1 [DOXORUBICIN] | 30.3 nM | 420 nM
2 | – | – | 578 nM | 100 nM | 1.2 nM | 4.6 nM | 384 nM | CC(=O)O[C@H]1C(=O)[C@@]2(C)[C@H]([C@H](OC(=O)c3ccccc3)[C@]3(O)C[C@H](OC(=O)[C@H](O)[C@@H](NC(=O)c4ccccc4)c4ccccc4)C(C)=C1C3(C)C)[C@]1(OC(C)=O)CO[C@@H]1C[C@@H]2O [PACLITAXEL] | – | 5.9 nM
